{"source": "patent US20080206792A1", "about": "“Method of identifying compounds useful to treat neuronal degenerative diseases” (University of Iowa Research Foundation, priority 2005, published 2008)", "key": {"Rac1/SOD1 binding": {"molecular_target": "T1, Rac1/SOD1 binding (Homo sapiens, UniProt P63000)", "T1 construct": "purchased Cytoskeleton Inc. (His-Rac1); Oxis Research (bovine SOD1)", "assay": "In vitro pull-down of His-Rac1-GTPγS with SOD1", "procedure": "Pull-down assays with GST- and His-tagged proteins. […] The GTPases were either used directly or preloaded with either GTPγS or GDPβS and then washed. […] Samples were incubated at room temperature (RT) for 30 minutes with intermittent gentle agitation. […] The fourth wash was carried out in 50 mM Tris pH 6.8. Proteins were eluted using 20 μl 125 mM imidazole and samples were then mixed with SDS-PAGE reducing loading buffer and separated by SDS-PAGE for Western blotting."}, "Nox": {"test_system": "Nox", "type": "biochemical, mouse", "procedure": "Lucigenin chemiluminescence (LCL) assay for NADPH-dependent superoxide (.O2) production. NADPH oxidase activities were analyzed by measuring the rate of ? generation using a chemiluminescent, lucigenin-based system (Li et al., 1998). 5 μM lucigenin in 50 μl of each subcellular fractions was incubated in the dark at room temperature for 15 minutes. LCL was measured using a single-tube Luminometer TD20-20 (Turner Designs Sunnyvale, Calif.). The reaction was initiated by the addition β-NADPH to a final concentration of 100 μM with or without DPI and/or SOD as indicated. LCL was measured over the course of 5 minutes. The initial slope of the luminescence curve (RLU/minute) was used to calculate the rate of luminescence product formation and compared between samples as an index of NADPH oxidase activity."}, "Nox2": {"molecular_target": "Nox2 (Mus musculus, UniProt Q61093)", "settings": "PMDF endosomes with purified bovine SOD1", "from_the_text": "Subcellular Fractionation.\nLucigenin chemiluminescence (LCL) assay for NADPH-dependent superoxide (.O2) production."}, "MCF-7 cells": {"test_system": "MCF-7 cells", "assay": "H2HFF-BSA endosomal fluorescence after IL-1β in MCF-7 cells", "type": "cell-based, human", "procedure": "In vivo localization of redox-active endosomes and ROS production. In vivo localization of superoxides within endosomes was performed using OxyBURST Green H2HFF-BSA (Molecular Probes). Stock solutions (1 mg/ml) were generated immediately prior to use by dissolving H2HFF-BSA in PBS under nitrogen and protected from light. Cells were incubated in the presence of 50 μg/ml OxyBurst Green H2HFF-BSA for 2 minutes at 37° C. and then stimulated by the addition of IL-1β (1 ng/ml). Cells were fixed in 4% paraformaldehyde at various times (1-10 minutes) post-stimulation and evaluated by fluorescent microscopy. Various compounds (1 mg/ml SOD or 10 μM DPI) were added at the time of IL-1β stimulation. Co-localization of H2HFF-BSA and EEA1 was performed by immunofluorescent localization in post-fixed samples using an anti-EEA1 monoclonal antibody (Transduction Laboratories) and a Texas Red-Conjugated Goat Anti-Mouse Antibody (Jackson ImmunoResearch Laboratories). In vivo localization of total cellular ROS (predominantly H2O2) was performed using H2DCFDA (Molecular Probes). […]\nIL-1β induces Nox2 complex activation in early endosomes. […] By incubating cells in the presence of H2HFF-BSA, the endosomal compartment was loaded with this dye and ? detected by a green fluorescence signal. […] These findings confirmed that Nox-derived ? were the major ROS detected by H2HFF-BSA in the endosomal compartment. […]"}, "NADPH oxidase [1]": {"molecular_target": "T2, NADPH oxidase (Homo sapiens, UniProt P04839)", "assay": "Lucigenin assay of NADPH-dependent superoxide production in vesicular fractions of IL-1β-stimulated MCF-7 cells", "quoted_text": "Cytokine treatments and vesicular isolation. MCF-7 cells were treated with recombinant IL-1β at the indicated concentration for 20 minutes prior to all vesicular isolations. For endosomal loading experiments, purified bovine Cu/ZnSOD (Oxis Research) and/or catalase (Sigma-Aldrich) proteins were added to fresh media (0.1 to 1 mg protein/ml) and applied to cells 10 minutes prior to cytokine treatment in the continued presence of SOD and/or catalase. Cells were washed and scraped into ice-cold PBS. Cell pellets were then resuspended in 0.5 ml of homogenization buffer (0.25 M sucrose, 10 mM triethanolamine, 1 mM EDTA, 1 mM PMSF, and 100 ug/ml aprotinin), homogenized in a Duall tissue grinder (Duall), and centrifuged at 2000×g at 4° C. for 10 minutes. The supernatant was designated the post-nuclear supernatant (PNS). […] The PNS was then bottom loaded under two-step gradients of 24% and 20% Iodixanol in homogenization buffer. Samples were centrifuged at 30,500 rpm for 2 hours at 4° C. Fractions were collected from the top to the bottom of the centrifuge tube at 4° C. (about 300 μl per fraction) and utilized immediately for NADPH oxidase activity and immuno-isolation, or frozen for Western blot analysis.\nNFκB and NADPH oxidase activity assays. […] NADPH oxidase activities were analyzed by measuring the rate of ? generation using a chemiluminescent, lucigenin-based system (Li et al., 2001). Prior to the initiation of the assay, 5 μg of vesicular proteins were combined with 5 μM lucigenin (Sigma-Aldrich) in PBS and incubated in darkness at room temperature for 10 minutes. The reaction was initiated by the addition of 100 μM of NADPH (Sigma-Aldrich) and changes in luminescence were measured over the course of 3 minutes (5 readings/second). The slope of the luminescence curve (relative light units [RLU] per minute) (r>0.95) was used to calculate the rate of ? formation as an index of NADPH oxidase activity (RLU/min μg protein)."}, "SOD1-G93A mice": {"test_system": "SOD1-G93A mice", "assay": "Survival and disease progression of G93A-SOD1 transgenic (ALS) mice given apocynin in drinking water", "type": "in vivo, mouse", "from_the_text": "FIG. 14. […] D) Survival Index is the time between disease onset and clinical death and is a marker of disease progression.\n(§1) FIG. 17. […] A) Survival curve for mice treated with different doses of apocynin in their water beginning at 14 days of age. Number of mice (N) for each treatment group is shown along with median survival times in days. B) Survival data of male and female mice for each given dose of apocynin. Mice treated for eye infections with antibiotics are marked as boxes. Those mice that were unsuccessfully treated and died from eye infections are denoted by an X within the box. Circles denote animals that never contracted eye infection. The number of mice in each group (N) is given above the mean survival in days for each dose of apocynin. C) Relationship between age of disease onset (as determined by a 5% weight loss during a one week period) and apocynin dosage. D) Survival Index was measured as the time from disease onset until the animal reached clinical death for each of the given doses of apocynin. E) NADPH-dependent superoxide production (Nox activity) was measured in total membranes of lumbar spinal cord from end-stage G93A-SOD1 transgenic mice (about 120 days of age) either untreated or treated with apocynin (300 mg/kg) for 5 days prior to analysis (N=5 in each group). F) Dihydroethidium fluorescence in lumbar spinal cord of the same mice shown in (E).\nHowever, it is currently unclear if other Rac-regulated Nox complexes (such as Nox1 and Nox3) might also contribute to altered ROS production in ALS. To test the therapeutic potential of direct Nox inhibition on the pathoprogression of ALS disease, apocynin in vivo inhibition studies were performed in G93A-ALS mice."}, "MO59J (glial) cells": {"test_system": "MO59J (glial) cells", "assay": "NADPH-dependent superoxide production and cell death in glial cells infected with adenovirus expressing mutant SOD1", "type": "cell-based", "settings": "apocynin 100 μM for 72 hours", "from_the_text": "(§2) FIG. 15. […] A) NADPH-dependent superoxide production in total endomembranes from brain, spinal cord, and liver of non-transgenic or transgenic mice overexpressing WT-SOD1 or G93A-SOD1 (N=3 animals in each group). B) Dihydroethidium (DHE) fluorescent detection of superoxide in lumbar spinal cord sections from 120 day old non-transgenic or transgenic mice overexpressing WT-SOD1 or G93A-SOD1. DAP1 staining demarcates nuclei in lower panels. C, D) Measure of superoxide production (C) or trypan-blue exclusion as a measure of cell death (D) in SH-SY (neuronal) or MO59J (glial) cells infected with adenoviral vectors expressing LacZ, WT-SOD1, or the indicated mutant SOD1. E) Superoxide production and percentage of cell death in SH-SY or MO59J cells following infection with the indicated adenoviral vectors followed by treatment with or without apocynin (100 μM) for 72 hours. F) Rac-GTP activation as determined by association with GST-Pak1 using spinal cord cell lysates from non-transgenic (control) or G93A-SOD1 transgenic mice at 120 days of age. Controls include lysate from control mice incubated with GTPγS (+) or GDPβS (−) prior to performing Pak1 pull-down assays. […]"}, "SH-SY (neuronal) cells": {"test_system": "SH-SY (neuronal) cells", "assay": "NADPH-dependent superoxide production and cell death in neuronal cells infected with adenovirus expressing mutant SOD1", "type": "cell-based", "settings": "apocynin 100 μM for 72 hours", "from_the_text": "as §2"}, "NADPH oxidase [2]": {"test_system": "NADPH oxidase", "assay": "Nox activity (lucigenin, DHE) in lumbar spinal cord of end-stage G93A-SOD1 mice after 5 days of apocynin", "type": "in vivo, mouse", "settings": "terminal stage ALS mice, apocynin 300 mg/kg in water for five days", "from_the_text": "as §1"}, "[3]": {"type": "in vivo", "settings": "non-ALS mice treated with apocynin"}, "NADPH oxidase [4]": {"molecular_target": "T2, NADPH oxidase", "assay": "ESR (DMPO adduct) of NADPH-dependent superoxide by IL-1β-activated endosomes", "type": "biochemical", "design": "enhanced recruitment of endogenous Nox2 to endosomes only following IL-1β stimulation; endogenous in cells; host or cells: MCF-7 cells, IL-1β-stimulated, iodixanol vesicular fractions", "settings": "endosomal loading prior to vesicular isolation"}}, "note": "Like-named read-outs stand apart in the source and are kept apart here."}
{"compound": "O[C@H](CS)[C@H](O)CS", "note": "(racemic) [DTT, dithiothreitol]", "values": [{"measurement": "DTT concentration reversing H2O2-mediated inhibition of Rac1/SOD1 binding", "setting": "Rac1/SOD1 binding; Rac1 oxidized with 300 pM H2O2", "result": "50 to 300", "unit": "µM"}]}
{"compound": "c1ccc2c(c1)[I+]c1ccccc1-2", "note": "[DPI, diphenyleneiodonium chloride]", "values": [{"measurement": "NADPH-dependent superoxide production", "setting": "Nox", "result": "inhibited"}, {"measurement": "SOD1-mediated enhancement in endosomal NADPH-dependent superoxide", "setting": "Nox2", "result": "sensitive"}, {"measurement": "IL-1β-induced H2HFF-BSA fluorescence", "setting": "MCF-7 cells; 10 μM DPI added at IL-1β stimulation", "result": "significantly inhibited"}, {"measurement": "NADPH-dependent superoxide production in peak vesicular fractions", "setting": "NADPH oxidase [1]", "result": "sensitive"}]}
{"compound": "OO", "note": "[H2O2, hydrogen peroxide]", "values": [{"measurement": "Lowest H2O2 concentration causing a significant decrease in the binding affinity of Rac1 for SOD1", "setting": "Rac1/SOD1 binding; Rac1 reduced with DTT, preloaded with GTPγS", "result": 50, "unit": "pM"}]}
{"compound": "COc1cc(C(C)=O)ccc1O", "note": "[apocynin, 4-Hydroxy-3-methoxyacetophenone]", "values": [{"measurement": "Number of motor neurons in the lumbar spinal cord", "setting": "SOD1-G93A mice; 300 mg/kg, at 120 days", "result": "significantly increased"}, {"measurement": "Probability of survival", "setting": "SOD1-G93A mice; SOD1-G93A mice, apocynin 30 mg/Kg, nontreated 125 days, p<0.0001", "result": 185, "unit": "days"}, {"measurement": "Gait analysis", "setting": "SOD1-G93A mice; apocynin 30 mg/Kg, at 114 days of age, untreated mice impaired gait", "result": "normal gait"}, {"measurement": "Survival Index (time between disease onset and clinical death)", "setting": "SOD1-G93A mice; apocynin 30 mg/Kg, n=6, untreated 11 days", "result": 32, "unit": "days"}, {"measurement": "Survival of G93A-SOD1 mice, dose dependence", "setting": "SOD1-G93A mice; apocynin in drinking water from 2 weeks of age", "result": "prolonged survival of G93A-SOD1 mice in a dose-dependent fashion"}, {"measurement": "Average age of disease onset", "setting": "SOD1-G93A mice; first observation of hind limb weakness, apocynin 30 mg/Kg, n=6, untreated 117.5 days", "result": 156.5, "unit": "days"}, {"measurement": "50% survival time", "setting": "SOD1-G93A mice; highest dose 300 mg/kg in drinking water from 2 weeks of age, increased from 125 days", "result": 239, "unit": "days"}, {"measurement": "Life expectancy and disease onset", "setting": "SOD1-G93A mice; lowest tested dose", "result": "prolong life expectancy and delay disease onset"}, {"measurement": "Age of onset of disease and survival index versus dose", "setting": "SOD1-G93A mice; onset judged by 5% weight loss and gait", "result": "clear dose response"}, {"measurement": "Cell viability", "setting": "MO59J (glial) cells", "result": "increase in cell viability"}, {"measurement": "SOD1 mutant facilitated NADPH-dependent superoxide production", "setting": "MO59J (glial) cells", "result": "abrogated"}, {"measurement": "Nox activity", "setting": "SH-SY (neuronal) cells", "result": "could not inhibit"}, {"measurement": "Protection from mutant SOD1-mediated cellular injury", "setting": "SH-SY (neuronal) cells", "result": "nor did it protect"}, {"measurement": "Nox-derived superoxide production in vivo (spinal cord, lucigenin and DHE assays)", "setting": "NADPH oxidase [2]", "result": "effectively inhibited"}, {"measurement": "Eye disease", "setting": "[3]", "result": "did not develop eye disease"}]}
{"compound": "C=C(C)[C@H]1Cc2c(ccc3c2O[C@@H]2COc4cc(OC)c(OC)cc4[C@@H]2C3=O)O1", "note": "[rotenone]", "values": [{"measurement": "NADPH-dependent superoxide production in peak vesicular fractions", "setting": "NADPH oxidase [1]; IL-1β-stimulated MCF-7 cells", "result": "not"}]}
{"compound": "Cu/ZnSOD: purified bovine Cu/ZnSOD (Oxis Research) added to media for endosomal loading", "values": [{"measurement": "IL-1β-induced H2HFF-BSA fluorescence", "setting": "MCF-7 cells; purified Cu/ZnSOD protein loaded into endosomal compartment, 1 mg/ml", "result": "significantly inhibited"}, {"measurement": "DMPO adduct formation (ESR)", "setting": "NADPH oxidase [4]", "result": "completely inhibited"}]}
{"compound": "antimycin A", "values": [{"measurement": "NADPH-dependent superoxide production in peak vesicular fractions", "setting": "NADPH oxidase [1]; IL-1β-stimulated MCF-7 cells", "result": "not"}]}
{"compound": "catalase", "values": [{"measurement": "DMPO adduct formation (ESR)", "setting": "NADPH oxidase [4]", "result": "not"}]}
